Assay results taken from patent publication US12544426B2, “Combination therapy with CD13-targeted chimeric proteins or chimeric protein complexes” (Orionis Biosciences, Inc., priority 2019, dated 2026).

B1: IFN-γ: human IFN-γ used on HUVECs, 200 ng/ml (protein)
chain: QDPYVKEAENLKKYFNAGHSDVADNGTLFLGILKNWKEESDRKIMQSQIVSFYFKLFKNFKDDQSIQKSVETIKEDMNVKFFNSNKKKRDDFEKLTNYSVTDLNVQRKAIHELIQVMAELSPAAKTGKRKRSQMLFRGRRASQ

Assays:
B16BI6 tumor = test: B16BI6 melanoma model, tumor growth; assay type: in vivo, mouse; details: Example 5, alone or combined with birinapant
Description: FIG. 2A is a graph showing the change in B16BI6 tumor size in B16 mice treated with PBS, CD8-targeted chimeric protein (CD8-Actaferon) alone, BcII10 targeted mutated murine TNF (Y114L) alone, or CD8-targeted chimeric protein (CD8-Actaferon) and BcII10 targeted mutated murine TNF (Y114L). FIG. 2B is a graph showing the change in B16BI6 tumor size in B16 mice treated with PBS, CD8-targeted chimeric protein (CD8-Actaferon) alone, CD13 targeted mutated murine TNF (Y114L) alone, or CD8-targeted chimeric protein (CD8-Actaferon) and CD13 targeted mutated murine TNF (Y114L). […] Tumor growth is shown as mean TSI+SEM (n=6 per group). The line under the graph represents the treatment period. […] Error bars are SEM. ***, p<0.001 by one-way ANOVA with Bonferroni's multiple comparison test. […]
FIG. 7A: Toxicity of wt sc mTNF and mutant Y86F after injection (T) in naïve C56BU6 mice. […] FIG. 7B: Plasma IL-6 concentrations measured via ELISA. […]
FIG. 8A and 8B: B16BI6 tumor growth after daily p.1. treatment with 7 μg mTNF, 30 μg hTNF alone or in combination with 10000 IU mIFN-γ in wt C57BL/6 mice (a) or homozygous Flk1 dnIFN-γR transgenic mice. […] FIG. 8C: IL-8 concentration in HUVEC supernatant after 24 h stimulation with the indicated concentration of sc hTNF mutant Y87F (Y87F), hCD13-AFR or wt hTNF, alone or in combination with 200 ng/ml hIFN-γ, measured via ELISA. […]

HUVEC = test: IL-8 secretion by HUVECs (ELISA of supernatant); assay type: cell-based, human; details: 24 h stimulation, 200 ng/ml hIFN-γ where used
Experimental: FIG. 8A and 8B: B16BI6 tumor growth after daily p.1. treatment with 7 μg mTNF, 30 μg hTNF alone or in combination with 10000 IU mIFN-γ in wt C57BL/6 mice (a) or homozygous Flk1 dnIFN-γR transgenic mice. The line under the graph represents the treatment period. Tumor growth is depicted as mean TSI, error bars are SEM (n=5 per group). FIG. 8C: IL-8 concentration in HUVEC supernatant after 24 h stimulation with the indicated concentration of sc hTNF mutant Y87F (Y87F), hCD13-AFR or wt hTNF, alone or in combination with 200 ng/ml hIFN-γ, measured via ELISA. Error bars are SEM. ns, non-significant; p<0.01; ***, p<0.001 by one-way ANOVA with Bonferroni's multiple comparison test. FIG. 8D: Schematic representation of AFN-II, consisting of a VHH fused via a 20×GGS linker to an engineered IFN-γ (e-IFN-γ) variant and N-terminal affinity tag. FIG. 8E: Viability of B16BI6 parental or mCD20-expressing cells after 72 h stimulation with wt mIFN-γ or de18 mutant fused to a BcII10 or mCD20 VHH, in the presence of 60 ng/ml mTNF. Cell viability was measured via an ATP luminescence assay. Each point is the mean of three replicates and error bars are SEM.
It was also tested whether IFN-γ could sensitize HUVECs to TNF, using either wtTNF or hCD13-AFR.

| Molecule | Tumor growth (FIG. 5A) (B16BI6 tumor) | IL-8 secretion by HUVECs (HUVEC) |
| --- | --- | --- |
| CC[C@H](NC(=O)[C@H](C)NC)C(=O)N1C[C@@H](O)C[C@H]1Cc1c(-c2[nH]c3cc(F)ccc3c2C[C@@H]2C[C@H](O)CN2C(=O)[C@H](CC)NC(=O)[C@H](C)NC)[nH]c2cc(F)ccc12 [birinapant] | very little effect on tumor growth | – |
| B1 | – | no effect on IL-8 secretion |
